Results published in patent US7803930B2, “Antisense modulation of apolipoprotein B-expression” (Isis Pharmaceuticals, Inc., priority 2002, dated 2010).
In the oligonucleotide strings, read from the 5' end, every base follows the letter of its sugar. An asterisk marks phosphorothioate; unmarked linkages are phosphodiester. Other units and linkages are bracketed, terminal groups are in braces. A string of capitals states the bases alone. e = 2'-O-(2-methoxyethyl) (MOE); [5mC] = 5-methylcytosine; d = 2'-deoxy (DNA)

Assays:
[1] = tested on: apolipoprotein B protein; assay: Apolipoprotein B protein secreted from primary Cynomolgous monkey hepatocytes, ELISA; type: cell-based; settings: for % Reduction of monkey apolipoprotein B protein secretion / secretion of apolipoprotein B protein (ELISA): primary Cynomolgous hepatocytes; for % Reduction in secreted apolipoprotein B protein: primary Cynomolgous monkey hepatocytes
Method: Apolipoprotein B protein secreted from primary Cynomolgous hepatocytes treated with 150 and 300 nM of oligonucleotide was measured by ELISA using an apolipoprotein B protein specific kit (ALerCHEK Inc., Portland, Me.). Each result represents the average of 3 experiments.
Apolipoprotein B protein secreted primary Cynomolgous hepatocytes treated with 50 and 150 nM of ISIS 315089 and ISIS 281625 was measured by ELISA using an apolipoprotein B protein specific kit (ALerCHEK Inc., Portland, Me.). Each result represents the average of 3 experiments.
Apolipoprotein B protein secreted from primary Cynomolgous hepatocytes treated with 50 and 150 nM of ISIS 271009 and ISIS 301027 was measured by ELISA using an apolipoprotein B protein specific kit (ALerCHEK Inc., Portland, Me.). Each result represents the average of 3 experiments.

[2] = tested on: Cynomolgous monkey apolipoprotein B mRNA; assay: Apolipoprotein B mRNA in primary Cynomolgous monkey hepatocytes, real-time PCR; type: cell-based; settings: for % Inhibition of apolipoprotein B mRNA: primary Cynomolgous monkey hepatocytes
Method: Antisense inhibition by ISIS 301012 was compared to that of ISIS 326358, which is a perfect match to the Cynomolgous monkey apolipoprotein B sequence to which ISIS 301012 hybridizes. The compounds were analyzed for their effect on Cynomolgous monkey apolipoprotein B mRNA levels in primary Cynomolgous monkey hepatocytes purchased from In Vitro Technologies ([…].). Pre-plated primary Cynonomolgous monkey hepatocytes were purchased from InVitro Technologies (Baltimore, Md.). Cells were cultured in high-glucose DMEM (Invitrogen Corporation, Carlsbad, Calif.) supplemented with 10% fetal bovine serum (Invitrogen Corporation, Carlsbad, Calif.), 100 units/mL and 100 μg/mL streptomycin (Invitrogen Corporation, Carlsbad, Calif.).
Primary Cynomolgous monkey hepatocytes were treated with 10, 50, 150 or 300 nM of antisense oligonucleotides for 48 hours. ISIS 113529 (SEQ ID NO: 859) was used as a control oligonucleotide. Untreated cells also served as a control. Cynomolgous monkey apolipoprotein B mRNA levels were quantitated by real-time PCR using the human apolipoprotein B and GAPDH primers and probes described by other examples herein. The results, shown in Table 44, are the average of 6 experiments and are expressed as percent inhibition of apolipoprotein B mRNA normalized to untreated control cells.
In a further embodiment of the invention, antisense inhibition by ISIS 281625 was compared to that by ISIS 315089, which is a perfect match to the Cynomolgous monkey apolipoprotein B sequence to which ISIS 281625 hybridizes. Primary Cynomolgous monkey hepatocytes, cultured as described herein, were treated with 10, 50, 150 or 300 nM of ISIS 315089 or ISIS 281625 for 24 hours. Cells were treated with the control oligonucleotide ISIS 13650 (SEQ ID NO: 806) at 150 and 300 nM or ISIS 113529 (SEQ ID NO: 859) at 300 nM. Untreated cells also served as a control. Cynomolgous monkey apolipoprotein B mRNA levels in primary Cynomolgous monkey hepatocytes was quantitated using real-time PCR with human primers and probe as described by other examples herein. The results, shown in Table 46, are the average of 3 experiments and are expressed as percent inhibition of apolipoprotein B mRNA normalized to untreated control cells.
ISIS 271009 (SEQ ID NO: 319) and ISIS 301027 (SEQ ID NO: 262) were also tested for their effects on apolipoprotein B mRNA and protein expression in Cynomolgous primary hepatoctyes. Cells, cultured as described herein, were treated with 10, 50 and 150 nM of ISIS 271009 or ISIS 301027 for 24 hours. Cells were treated with the control oligonucleotide ISIS 113529 (SEQ ID NO: 859) at 150 nM. Untreated cells also served as a control. Cynomolgous monkey apolipoprotein B mRNA levels in primary Cynomolgous monkey hepatocytes was quantitated using real-time PCR with human primers and probe as described by other examples herein. The results, shown in Table 48, are the average of 2 experiments and are expressed as percent inhibition of apolipoprotein B mRNA normalized to untreated control cells.

[3] = Toxicity in C57BL/6 mice, two weeks (Example 48): liver enzyme levels, body, liver and spleen weight; type: in vivo, mouse; set-up: Weight BODY / Weight LIVER / Weight SPLEEN: unit not given here; settings: 25 mg/kg i.p. twice a week
Method: C57BL/6 mice were divided into two groups—one group receiving oligonucleotide treatment and control animals receiving saline treatment. After overnight fasting, mice were dosed intraperitoneally twice a week with saline or 25 mg/kg of one of several oligonucleotides for two weeks. The antisense oligonucleotides used in the present study were ISIS 233172 (SEQ ID NO: 835) and ISIS 233175 (SEQ ID NO: 838), both targeted to rabbit apolipoprotein B, and ISIS 281625 (SEQ ID NO: 224), ISIS 301012 (SEQ ID NO: 247), and ISIS 301027 (SEQ ID NO: 262), targeted to human apolipoprotein B. At study termination and forty eight hours after the final injections, animals were sacrificed and evaluated for liver enzyme levels, body weight, liver weight, and spleen weight.

[4] = tested on: rabbit apolipoprotein B mRNA; assay: Inhibition of rabbit apolipoprotein B mRNA levels in primary rabbit hepatocytes, real-time PCR; type: cell-based; set-up: % INHIB of rabbit apolipoprotein B mRNA levels: concentration or dose not given beside the values; settings: for Percent Inhibition of rabbit apolipoprotein B mRNA levels: averages from two experiments
[5] = tested on: human apolipoprotein B mRNA; assay: Apolipoprotein B mRNA in primary human hepatocytes, real-time PCR; type: cell-based; settings: 24 hours (Table 37)
Method: In accordance with the present invention, antisense oligonucleotides targeted to human apolipoprotein B were tested in dose response studies in primary human hepatocytes. Pre-plated primary human hepatocytes were purchased from Invitro Technologies (Baltimore, Md.). Cells were cultured in high-glucose DMEM (Invitrogen Corporation, Carlsbad, Calif.) supplemented with 10% fetal bovine serum (Invitrogen Corporation, Carlsbad, Calif.), 100 units/mL and 100 μg/mL streptomycin (Invitrogen Corporation, Carlsbad, Calif.).
Human primary hepatocytes were treated with ISIS 301012 (SEQ ID NO: 247) at 10, 50, 150 or 300 nM. Untreated cells and cells treated with the scrambled control oligonucleotide ISIS 113529 ([…], SEQ ID NO: 859) served as two groups of control cells. ISIS 113529 is a chimeric oligonucleotide (“gapmer”) 20 nucleotides in length, composed of a central “gap” region consisting of ten 2′-deoxynucleotides, which is flanked on both sides (5′ and 3′ directions) by five-nucleotide “wings”. The wings are composed of 2′-methoxyethyl (2′-MOE)nucleotides. The internucleoside (backbone) linkages are phosphorothioate (P═S) throughout the oligonucleotide. All cytidines are 5-methylcytidines.
(§1) Oligonucleotides were introduced into cells through LIPOFECTIN-mediated transfection as described by other examples herein. Cells were harvested both 24 and 48 hours after treatment with oligonucleotide, and both RNA and protein were isolated. Additionally, the culture media from treated cells was collected for ELISA analysis of apolipoprotein B protein secretion.
Apolipoprotein B mRNA expression was determined by real-time PCR of RNA samples as described by other examples herein. Each result represents 6 experiments.
(§2) An additional experiment was performed to test the effects of ISIS 271009 (SEQ ID NO: 319), ISIS 281625 (SEQ ID NO: 224) and ISIS 301027 (SEQ ID NO: 262) on human apolipoprotein B mRNA in human primary hepatocytes. Cells were cultured as described herein and treated with 5, 10, 50 or 150 nM of ISIS 271009, ISIS 281625 or ISIS 301027 for a period of 24 hours. The control oligonucleotides ISIS 13650 (SEQ ID NO: 806) and ISIS 113529 (SEQ ID NO: 859) were used at 50 or 150 nM. Human apolipoprotein B mRNA expression was evaluated by real-time PCR as described by other examples herein. Apolipoprotein B protein secreted into the cultured cell media was measured in the samples treated with 50 and 150 nM of oligonucleotide, using a target protein specific ELISA kit (ALerCHEK Inc., Portland, Me.).

[6] = tested on: apolipoprotein B protein; assay: Apolipoprotein B protein secreted from primary human hepatocytes, ELISA; type: cell-based; settings: 150 nM, 24 hours, "+" = increased
Method: as §1
Apolipoprotein secreted from into the cultured cell media was measured in the samples treated with 50 and 150 nM of oligonucleotide, using a target protein specific ELISA kit (ALerCHEK Inc., Portland, Me.). Each result represents 3 experiments.
as §2

For “315089 (antisense eA*eG*eA*eT*eT*dA*d[5mC]*d[5mC]*dA*dG*d[5mC]*d[5mC]*dA*dT*dA*eT*eG*e[5mC]*eA*eG) [compound 315089]”, the “% Reduction of monkey apolipoprotein B protein secretion” value ([1]; 50 nM (Table 47)) was 11%, the “% Reduction of monkey apolipoprotein B protein secretion” value ([1]; 150 nM (Table 47)) was 25% and the “% Inhibition of apolipoprotein B mRNA” value ([2]; 10 nM, 24 hours (Table 46), "+" = expression increased) was 70%. For the same substance, the “% Inhibition of apolipoprotein B mRNA” value ([2]; 50 nM, 24 hours (Table 46)) was 83%, the “% Inhibition of apolipoprotein B mRNA” value ([2]; 150 nM, 24 hours (Table 46), "+" = expression increased) was 81% and the “% Inhibition of apolipoprotein B mRNA” value ([2]; 300 nM, 24 hours (Table 46)) was 82%.

For “AGATTACCAGCCATATGCAG (gapmer: ten 2'-deoxy gap, five-nucleotide wings, wing chemistry not given here) [ISIS 315089]”, the “secretion of apolipoprotein B protein (ELISA)” value ([1]; 150 nM) was “decrease”, the “secretion of apolipoprotein B protein (ELISA)” value ([1]; 50 and 150 nM (statement after Table 49)) was “decrease” and the “inhibition of apolipoprotein B mRNA expression” value ([2]; Cynomolgous monkey primary hepatocytes, 10, 50, 150 or 300 nM, 24 hours) was “in a dose-dependent manner”.

With “233175 (antisense eG*eA*e[5mC]*e[5mC]*eT*dT*dG*dA*dG*dT*dA*dG*dA*dT*dT*e[5mC]*e[5mC]*eT*eG*eG) [compound 233175]” the “Liver Enzymes ALT” value [3] was 230.2 IU/L, the “Liver Enzymes AST” value [3] was 346.7 IU/L and the “Weight BODY” value [3] was 21.5. For the same substance, the “Weight LIVER” value [3] was 1.4, the “Weight SPLEEN” value [3] was 0.1 and the “% INHIB of rabbit apolipoprotein B mRNA levels” value [4] was 90%. The “Percent Inhibition of rabbit apolipoprotein B mRNA levels” value (“Percent Inhibition” for short) ([4]; 10 nM) was 67%, the “Percent Inhibition” value ([4]; 50 nM) was 85% and the “Percent Inhibition” value ([4]; 150 nM) was 90%. The “Percent Inhibition” value ([4]; 300 nM) was 93%.

With “CTCTTACTGTGCTGTGGACA (antisense e[5mC]*eT*e[5mC]*eT*eT*dA*d[5mC]*dT*dG*dT*dG*d[5mC]*dT*dG*dT*eG*eG*eA*e[5mC]*eA) [ISIS 113529, reference compound]” the “% Inhibition of apolipoprotein B mRNA expression” value ([5]; 50 nM) was 0%, the “% Inhibition of apolipoprotein B mRNA expression” value ([5]; 150 nM) was 14% and the “% Inhibition of apolipoprotein B protein secretion” value [6] was “+1%”.

In the case of “233172 (antisense eA*eT*eG*eG*eA*dA*dG*dA*d[5mC]*dT*dG*dG*d[5mC]*dA*dG*e[5mC]*eT*e[5mC]*eT*eA) [compound 233172]”, the “Liver Enzymes ALT” value [3] is reported as 43.3 IU/L, the “Liver Enzymes AST” value [3] is reported as 94.3 IU/L and the “Weight BODY” value [3] is reported as 21.3. The “Weight LIVER” value [3] was 1.3, the “Weight SPLEEN” value [3] was 0.1 and the “% INHIB of rabbit apolipoprotein B mRNA levels” value [4] was 86%. For the same substance, the “Percent Inhibition” value ([4]; 10 nM) was 60%, the “Percent Inhibition” value ([4]; 50 nM) was 76% and the “Percent Inhibition” value ([4]; 150 nM) was 81%. The “Percent Inhibition” value ([4]; 300 nM) was 84%.

For “ISIS 13650: SEQ ID NO: 806, control oligonucleotide (antisense TCCCGCCTGTGACATGCATT; listed as DNA, chemistry not given here) [reference compound]”, the “% Inhibition of apolipoprotein B mRNA expression” value ([5]; 50 nM) was 38%, the “% Inhibition of apolipoprotein B mRNA expression” value ([5]; 150 nM) was 26% and the “% Inhibition of apolipoprotein B protein secretion” value [6] was “+18%”.

In the case of “ISIS 233175: SEQ ID NO: 838, targeted to rabbit apolipoprotein B (antisense eG*eA*e[5mC]*e[5mC]*eT*dT*dG*dA*dG*dT*dA*dG*dA*dT*dT*e[5mC]*e[5mC]*eT*eG*eG)”, the “levels of liver enzymes relative to saline treatment” value [3] is reported as “drastically increased”.

In the case of “326358 (antisense eG*e[5mC]*e[5mC]*eT*e[5mC]*dA*dG*dT*d[5mC]*dT*dG*d[5mC]*dT*dT*dT*eA*e[5mC]*eA*e[5mC]*e[5mC]) [compound 326358]”, the “% Reduction in secreted apolipoprotein B protein” value ([1]; 150 nM, 24 hours) is reported as 21%, the “% Reduction in secreted apolipoprotein B protein” value ([1]; 150 nM, 48 hours) is reported as 29% and the “% Reduction in secreted apolipoprotein B protein” value ([1]; 300 nM, 24 hours) is reported as 17%. For the same substance, the “% Reduction in secreted apolipoprotein B protein” value ([1]; 300 nM, 48 hours) was 35%, the “% Inhibition of apolipoprotein B mRNA” value ([2]; 10 nM, 24 hours) was 35% and the “% Inhibition of apolipoprotein B mRNA” value ([2]; 10 nM, 48 hours) was 85%. For the same substance, the “% Inhibition of apolipoprotein B mRNA” value ([2]; 50 nM, 24 hours) was 66%, the “% Inhibition of apolipoprotein B mRNA” value ([2]; 50 nM, 48 hours) was 88% and the “% Inhibition of apolipoprotein B mRNA” value ([2]; 150 nM, 24 hours) was 61%. For the same substance, the “% Inhibition of apolipoprotein B mRNA” value ([2]; 150 nM, 48 hours) was 82%, the “% Inhibition of apolipoprotein B mRNA” value ([2]; 300 nM, 24 hours) was 64% and the “% Inhibition of apolipoprotein B mRNA” value ([2]; 300 nM, 48 hours) was 87%.
